Source: patent US8669232B2, “Flavonol compounds, a bioactive extract/fraction from Ulmus wallichiana and its compounds for prevention for treatment of osteo-health related disorders” (Council of Scientific & Industrial Research, priority 2008, dated 2014)

Assays:
[1] = tested on: ovariectomized Sprague Dawley rats; experiment: Uterine weight in Ovx rats (estrogen agonistic effect); type: in vivo; conditions: 1.0&5.0 mg/kg body weight, 90 days, uterine weight comparable with Ovx + vehicle
Protocol: Ethanolic extracts of […] at the doses of 500-& 750 mg/kg body weight were given daily by oral route to Sprague Dawley (180-200 g) rats after bilateral ovariectomy (Ovx). This is the most widely used animal model for osteopenia (bone loss) mimicking human condition of post-menopausal bone loss. The extract was given in gum acacia (vehicle). Sham operated rats and Ovx rats were used as controls and given only gum acacia. Each group consisted of 10 rats and the groups were as follows: sham intact, Ovx, Ovx+500 mg/kg extract and Ovx+750 mg/kg extract. Treatment started 24 h after the surgery and continued for 90 days. After 90 days, the rats were first acclimatized and then kept in metabolic cages with no food but only water for 24 h to collect urine samples. After 24 h, rats were returned to the cages with food and water ad libitum with oral administration of the extract as before foe an additional 24 hour. Rats were then euthanized and autopsied to collect blood, bones (tibia, femur, L1-L4 vertebrae) and uterus. […] at 1 to 10 mg/kg body weight were given daily by oral route to Sprague Dawley (180-200 g) rats after bilateral ovariectomy (Ovx). This is the most widely used animal model for osteopenia (bone loss) mimicking human condition of post-menopausal bone loss. The extract was given in gum acacia (vehicle). […]

calvarial osteoblasts = experiment: BrdU cell proliferation assay; type: cell-based, neonatal Sprague-Dawley rats
Protocol: Neonatal rat calvarial cell cultures are prepared as described previously (Chattopadhyay et al., Endocrinology 145:3451-62, 2004) using slight modification. Briefly, for calvarial osteoblast cultures, frontal and parietal bones from neonatal Sprague-Dawley rats (1-3 day old) were digested in 0.1% collagenase/0.1% dispase in α-MEM to obtain 5 sequential digests. The second through fifth digests are combined and grown to confluence at 37° C. and 5% CO2 in air in α-MEM, supplemented with 10% fetal bovine serum (FBS), 2 mM glutamine, 100 U/ml penicillin-streptomycin, non-essential amino acid solution and sodium pyruvate.
BrdU assay is used to measure cell proliferation based on the incorporation of BrdU during DNA synthesis in proliferating cells (Chattopadhyay et al., Endocrinology 145:3451-62, 2004). […] Cells were allowed to attach for 24 h and after that cells were starved in 0.5% FCS containing α-MEM medium followed by treatment of K058 at various concentrations for 24 hrs following which cell proliferation was determined by BrdU ELISA method as described by the manufacturer (Roche Biochemicals, Rotkreuz, Switzerland). […] BrdU incubation was carried out for 4 h, cells were fixed and denatured and subsequently treated with anti-BrdU antibody and the immune complexes were detected by the substrate reaction. Absorbance was measured at 370 nm.

Bone marrow cells (BMCs) = experiment: In vitro mineralization from mouse bone marrow; type: cell-based, balb/c mice; conditions: 1 nM and 100 nM, 21 days
Excerpt: Adult balb/c mice were used in this study. Bone marrow cells (BMCs) were harvested from the femurs and tibias of the animals, as described elsewhere (Maniatopoulos et al. Cell Tissue Res 1988:254:317-30.; Ishaug et al., J Biomed Mater Res 1997; 36:17-28.). Briefly, bones were aseptically excised from the hind limbs of the mice following ether euthanasia. The soft tissue was removed, and the proximal end of the femur and distal end of the tibia were clipped off using sterile scissors, a hole was created in the knee joint end of each bone with an needle, and the marrow was flushed from the shaft with control medium (CM) which consisted of α-MEM supplemented with 10% fetal calf serum, 100 U/ml penicillin, 100 U/ml streptomycin (Sigma, Chemical Co., St. Louis, Mo., USA). The cells were suspended in this medium, and the cell suspensions from all bones were combined in a centrifuge tube. The suspension was spun down at 800 rpm for 5 min. Cells were counted by using a haemocytometer. The supernatant was aspirated, and the pellet was re-suspended in fresh CM and then seeded into 12-well plates. 200000 cells/well were cultured in 12-well plates and in a humidified atmosphere, with 5% CO2, at 37° C. in the same medium supplemented with 10 mM-β-glycerophosphate, 50 μg/ml L-ascorbic acid and 10^−8M dexamethasone with different concentration of the test compound. This medium was replaced every other day (John et al. Trends. Biomater. Artif. Organs 2002:16(1):28-33.; Connolly. Clin Orthop 1995:313: 8-18.; Gebhart and Lane. Acta Orthop Belg 1991:57(2):130-43.; Gurpinar et al. J Biomater Appl 2003; 18(1):25-33; Lan and Wang, Blood Substitutes. Biotechnol 2003; 31(1):59-68.). Treatments K012, K058, K068 and K0100 at 1 nM and 100 nM concentration were given for 21 days and after completion of the treatment samples were rinsed with PBS followed by fixation (4% HCHO for […]). Samples were then rinsed with nanopure water and stained for 10 min with 40 mM AR-S, pH 4.2, at room temperature. […] Photomicrographs of the stained wells were taken. Subsequently, alizarin red-S stain was extracted using 10% (w/v) CPC in […] sodium phosphate, pH 7.0, for […] at room temperature, and the resulting solutions were read on a Microplate reader with a test wavelength of 540 nm against a reference wavelength of 620 nm.

SMILES | estrogen agonistic action at the uterine level (uterine weight) [1] | osteoblast proliferation (summary of in vitro effects) (calvarial osteoblasts) | mineralization of bone marrow osteoblasts (alizarin red staining) (Bone marrow cells (BMCs))
O=c1c(O)c(-c2ccc(O)c(O)c2)oc2cc(O)c(C3O[C@H](CO)[C@@H](O)[C@H](O)[C@H]3O)c(O)c12 (stereo partly drawn) [K012, 6-Glucopyranosyl-3,3′,4′,5,7-pentahydroxyflavone] | no estrogen agonistic action | promoted | stimulated
O=C1c2c(cc(O)c([C@@H]3OC(CO)[C@@H](O)[C@H](O)C3O)c2O)O[C@@H](c2ccc(O)c(O)c2)[C@@H]1O (stereo partly drawn) [K058, (2S,3S)-(+)-3′,4′,5,7-tetrahydroxydihydroflavonol-6-C-β-D-glucopyranoside] | no estrogen agonistic action | promoted | stimulated
